According to paper PMC8708872, “Discovery of a Novel Template, 7-Substituted 7-Deaza-4′-Thioadenosine Derivatives as Multi-Kinase Inhibitors” (Pharmaceuticals, 2021):

Legend:
Assay type in all cases: binding
PLK4 = molecular target: T1, PLK4 (Homo sapiens, UniProt O00444); test: Kinome scan; details: 1000 nM
T1 construct: purchased Eurofins DiscoverX Corporation
Description: (§1) The kinome scan assays were carried out at Eurofins DiscoverX Corporation. For kinome scan profiling of compound 1g, it was screened at 1μM against 96 kinases (N = 2 independent experiments). The results for binding interactions are reported as % inhibition, where higher values indicate strong affinity; see the Supporting Information, Table S1 for full kinome profile.

[1] = molecular target: T2, TYK2(JH1domain-catalytic) (Homo sapiens, UniProt P29597); test: Kinome scan; details: 1000 nM
T2 construct: TYK2(JH1domain-catalytic); purchased Eurofins DiscoverX Corporation
Description: as §1

CDK11 = molecular target: T3, CDK11 (Homo sapiens, UniProt Q9BWU1); test: Kinome scan; details: 1000 nM
T3 construct: purchased Eurofins DiscoverX Corporation
Description: as §1

PAK1 = molecular target: T4, PAK1 (Homo sapiens, UniProt Q13153); test: Kinome scan; details: 1000 nM
T4 construct: purchased Eurofins DiscoverX Corporation
Description: as §1

Kinome scan = details: 1000 nM, ZAP70 (Entrez gene symbol printed STK32C)
Description: as §1

IGF1R = molecular target: T5, IGF1R (Homo sapiens, UniProt P08069); test: Kinome scan; details: 1000 nM
T5 construct: purchased Eurofins DiscoverX Corporation
Description: as §1

KIT = molecular target: T6, KIT (Homo sapiens, UniProt P10721); test: Kinome scan; details: 1000 nM
T6 construct: purchased Eurofins DiscoverX Corporation
Description: as §1

GSK3B = molecular target: T7, GSK3B (Homo sapiens, UniProt P49841); test: Kinome scan; details: 1000 nM
T7 construct: purchased Eurofins DiscoverX Corporation
Description: as §1

CSNK1D = molecular target: T8, CSNK1D (Homo sapiens, UniProt P48730); test: Kinome scan
T8 construct: purchased Eurofins DiscoverX Corporation
T8 sequence (P48730 whole entry): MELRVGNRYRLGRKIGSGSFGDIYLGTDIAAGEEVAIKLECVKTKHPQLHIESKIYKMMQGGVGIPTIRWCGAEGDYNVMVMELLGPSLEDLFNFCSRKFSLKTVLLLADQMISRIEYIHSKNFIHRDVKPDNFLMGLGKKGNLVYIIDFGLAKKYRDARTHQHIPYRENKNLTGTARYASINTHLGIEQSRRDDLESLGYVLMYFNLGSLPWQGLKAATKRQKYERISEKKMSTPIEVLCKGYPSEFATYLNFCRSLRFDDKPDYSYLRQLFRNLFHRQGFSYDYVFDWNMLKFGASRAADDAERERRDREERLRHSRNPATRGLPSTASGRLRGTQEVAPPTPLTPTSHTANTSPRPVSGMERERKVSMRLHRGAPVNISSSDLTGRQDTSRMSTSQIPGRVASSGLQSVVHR
Description: as §1

ERBB4 = molecular target: T9, ERBB4 (Homo sapiens, UniProt Q15303); test: Kinome scan; details: 1000 nM
T9 construct: purchased Eurofins DiscoverX Corporation
Description: as §1

CDK2 = molecular target: T10, CDK2 (Homo sapiens, UniProt P24941); test: Kinome scan; details: 1000 nM
T10 construct: purchased Eurofins DiscoverX Corporation
Description: as §1

AKT1 = molecular target: T11, AKT1 (Homo sapiens, UniProt P31749); test: Kinome scan; details: 1000 nM
T11 construct: purchased Eurofins DiscoverX Corporation
Description: as §1

PRKCE = molecular target: T12, PRKCE (Homo sapiens, UniProt Q02156); test: Kinome scan; details: 1000 nM
T12 construct: purchased Eurofins DiscoverX Corporation
Description: as §1

MET = molecular target: T13, MET (Homo sapiens, UniProt P08581); test: Kinome scan; details: 1000 nM
T13 construct: purchased Eurofins DiscoverX Corporation
Description: as §1

AURKA = molecular target: T14, AURKA (Homo sapiens, UniProt O14965); test: Kinome scan; details: 1000 nM
T14 construct: purchased Eurofins DiscoverX Corporation
Description: as §1

BRAF = molecular target: T15, BRAF (Homo sapiens, UniProt P15056); test: Kinome scan; details: 1000 nM
T15 construct: purchased Eurofins DiscoverX Corporation
Description: as §1

FLT3 = molecular target: T16, FLT3 (Homo sapiens, UniProt P36888); test: Kinome scan; details: 1000 nM
T16 construct: purchased Eurofins DiscoverX Corporation
Description: as §1

MKNK2 = molecular target: T17, MKNK2 (Homo sapiens, UniProt Q9HBH9); test: Kinome scan; details: 1000 nM
T17 construct: purchased Eurofins DiscoverX Corporation
Description: as §1

PLK1 = molecular target: T18, PLK1 (Homo sapiens, UniProt P53350); test: Kinome scan; details: 1000 nM
T18 construct: purchased Eurofins DiscoverX Corporation
Description: as §1

AURKB = molecular target: T19, AURKB (Homo sapiens, UniProt Q96GD4); test: Kinome scan; details: 1000 nM
T19 construct: purchased Eurofins DiscoverX Corporation
Description: as §1

EPHA2 = molecular target: T20, EPHA2 (Homo sapiens, UniProt P29317); test: Kinome scan; details: 1000 nM
T20 construct: purchased Eurofins DiscoverX Corporation
Description: as §1

ROCK2 = molecular target: T21, ROCK2 (Homo sapiens, UniProt O75116); test: Kinome scan; details: 1000 nM
T21 construct: purchased Eurofins DiscoverX Corporation
T21 sequence (O75116 whole entry): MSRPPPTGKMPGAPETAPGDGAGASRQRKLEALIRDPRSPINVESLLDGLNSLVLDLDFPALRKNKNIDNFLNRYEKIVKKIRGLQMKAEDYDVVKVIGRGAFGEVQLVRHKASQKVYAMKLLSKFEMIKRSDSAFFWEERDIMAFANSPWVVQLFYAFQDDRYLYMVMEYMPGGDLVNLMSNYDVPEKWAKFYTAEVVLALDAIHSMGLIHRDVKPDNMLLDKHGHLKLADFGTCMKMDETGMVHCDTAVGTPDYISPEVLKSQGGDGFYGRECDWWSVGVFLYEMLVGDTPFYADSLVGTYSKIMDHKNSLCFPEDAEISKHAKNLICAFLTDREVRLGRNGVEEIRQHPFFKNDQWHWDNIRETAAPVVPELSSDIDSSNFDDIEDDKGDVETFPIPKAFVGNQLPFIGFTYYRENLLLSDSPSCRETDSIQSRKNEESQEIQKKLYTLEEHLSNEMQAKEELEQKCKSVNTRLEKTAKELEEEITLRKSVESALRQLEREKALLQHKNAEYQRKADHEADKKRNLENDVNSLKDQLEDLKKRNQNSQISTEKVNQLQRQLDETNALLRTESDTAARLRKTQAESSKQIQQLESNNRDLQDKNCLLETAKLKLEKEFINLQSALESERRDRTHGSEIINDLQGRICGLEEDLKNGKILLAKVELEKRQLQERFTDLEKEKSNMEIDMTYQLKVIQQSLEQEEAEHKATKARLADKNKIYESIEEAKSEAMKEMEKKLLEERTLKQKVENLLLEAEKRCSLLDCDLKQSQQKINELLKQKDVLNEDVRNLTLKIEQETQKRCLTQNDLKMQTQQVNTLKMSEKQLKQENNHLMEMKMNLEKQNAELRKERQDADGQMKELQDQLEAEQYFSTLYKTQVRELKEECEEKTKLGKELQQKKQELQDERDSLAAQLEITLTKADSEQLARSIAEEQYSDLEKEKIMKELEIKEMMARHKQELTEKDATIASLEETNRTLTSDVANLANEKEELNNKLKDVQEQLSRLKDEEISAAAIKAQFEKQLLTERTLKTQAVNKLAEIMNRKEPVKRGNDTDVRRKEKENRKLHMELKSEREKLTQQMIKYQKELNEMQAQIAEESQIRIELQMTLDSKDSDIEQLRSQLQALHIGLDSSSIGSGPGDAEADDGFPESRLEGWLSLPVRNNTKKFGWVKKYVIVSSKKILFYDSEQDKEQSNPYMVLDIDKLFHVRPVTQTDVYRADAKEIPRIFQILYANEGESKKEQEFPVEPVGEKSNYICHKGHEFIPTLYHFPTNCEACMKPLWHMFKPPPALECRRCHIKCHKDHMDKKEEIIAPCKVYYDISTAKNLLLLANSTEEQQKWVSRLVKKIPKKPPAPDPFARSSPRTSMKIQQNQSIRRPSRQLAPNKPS
Description: as §1

PIM2 = molecular target: T22, PIM2 (Homo sapiens, UniProt Q9P1W9); test: Kinome scan; details: 1000 nM
T22 construct: purchased Eurofins DiscoverX Corporation
Description: as §1

[2] = molecular target: T23, JAK3(JH1domain-catalytic) (Homo sapiens, UniProt P52333); test: Kinome scan; details: 1000 nM
T23 construct: JAK3(JH1domain-catalytic); purchased Eurofins DiscoverX Corporation
Description: as §1

AXL = molecular target: T24, AXL (Homo sapiens, UniProt P30530); test: Kinome scan; details: 1000 nM
T24 construct: purchased Eurofins DiscoverX Corporation
T24 sequence (P30530 26-894): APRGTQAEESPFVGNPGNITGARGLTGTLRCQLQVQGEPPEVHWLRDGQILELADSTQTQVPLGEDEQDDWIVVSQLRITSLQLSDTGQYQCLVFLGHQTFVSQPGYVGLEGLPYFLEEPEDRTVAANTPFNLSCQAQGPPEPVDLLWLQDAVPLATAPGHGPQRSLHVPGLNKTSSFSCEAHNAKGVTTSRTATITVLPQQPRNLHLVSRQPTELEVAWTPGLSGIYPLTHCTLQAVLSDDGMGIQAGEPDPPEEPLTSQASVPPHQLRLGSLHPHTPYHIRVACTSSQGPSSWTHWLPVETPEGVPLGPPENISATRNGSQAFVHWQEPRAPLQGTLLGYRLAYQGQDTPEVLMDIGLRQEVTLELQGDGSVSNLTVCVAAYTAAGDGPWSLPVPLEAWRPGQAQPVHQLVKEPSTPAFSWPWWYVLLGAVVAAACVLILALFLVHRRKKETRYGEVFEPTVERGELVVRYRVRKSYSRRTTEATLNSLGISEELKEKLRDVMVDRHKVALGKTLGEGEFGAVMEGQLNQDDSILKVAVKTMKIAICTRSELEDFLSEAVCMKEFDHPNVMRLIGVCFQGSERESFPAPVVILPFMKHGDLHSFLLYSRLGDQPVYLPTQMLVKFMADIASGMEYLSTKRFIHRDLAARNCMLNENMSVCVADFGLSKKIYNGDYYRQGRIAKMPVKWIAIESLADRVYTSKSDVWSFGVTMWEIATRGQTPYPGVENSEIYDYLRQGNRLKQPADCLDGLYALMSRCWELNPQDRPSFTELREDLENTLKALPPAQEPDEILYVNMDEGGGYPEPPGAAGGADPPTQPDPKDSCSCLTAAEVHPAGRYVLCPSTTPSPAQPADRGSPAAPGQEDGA
Description: as §1

JNK1 = molecular target: T25, JNK1 (Homo sapiens, UniProt P45983); test: Kinome scan; details: 1000 nM
T25 construct: purchased Eurofins DiscoverX Corporation
Description: as §1

p38-beta = molecular target: T26, p38-beta (Homo sapiens, UniProt Q15759); test: Kinome scan; details: 1000 nM
T26 construct: purchased Eurofins DiscoverX Corporation
Description: as §1

EGFR(L858R) = molecular target: T27, EGFR(L858R) (Homo sapiens, UniProt P00533, L858R); test: Kinome scan; details: 1000 nM
T27 construct: purchased Eurofins DiscoverX Corporation
Description: as §1

LKB1 = molecular target: T28, LKB1 (Homo sapiens, UniProt Q15831); test: Kinome scan; details: 1000 nM
T28 construct: purchased Eurofins DiscoverX Corporation
T28 sequence (Q15831 whole entry): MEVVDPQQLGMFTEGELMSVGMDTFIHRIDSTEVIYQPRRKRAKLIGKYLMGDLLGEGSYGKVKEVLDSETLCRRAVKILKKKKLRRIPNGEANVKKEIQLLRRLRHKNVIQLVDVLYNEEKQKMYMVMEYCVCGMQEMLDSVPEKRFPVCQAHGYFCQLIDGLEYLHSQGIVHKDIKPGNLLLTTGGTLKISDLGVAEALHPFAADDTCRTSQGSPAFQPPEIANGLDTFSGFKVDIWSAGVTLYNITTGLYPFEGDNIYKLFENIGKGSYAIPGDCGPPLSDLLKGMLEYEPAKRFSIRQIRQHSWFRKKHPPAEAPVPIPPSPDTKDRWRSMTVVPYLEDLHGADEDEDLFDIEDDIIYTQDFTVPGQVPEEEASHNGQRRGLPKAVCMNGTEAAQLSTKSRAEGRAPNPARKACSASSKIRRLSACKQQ
Description: as §1

PAK4 = molecular target: T29, PAK4 (Homo sapiens, UniProt O96013); test: Kinome scan; details: 1000 nM
T29 construct: purchased Eurofins DiscoverX Corporation
Description: as §1

PIK3CA = molecular target: T30, PIK3CA (Homo sapiens, UniProt P42336); test: Kinome scan; details: 1000 nM
T30 construct: purchased Eurofins DiscoverX Corporation
Description: as §1

CSF1R = molecular target: T31, CSF1R (Homo sapiens, UniProt P07333); test: Kinome scan; details: 1000 nM
T31 construct: purchased Eurofins DiscoverX Corporation
T31 sequence (P07333 20-972): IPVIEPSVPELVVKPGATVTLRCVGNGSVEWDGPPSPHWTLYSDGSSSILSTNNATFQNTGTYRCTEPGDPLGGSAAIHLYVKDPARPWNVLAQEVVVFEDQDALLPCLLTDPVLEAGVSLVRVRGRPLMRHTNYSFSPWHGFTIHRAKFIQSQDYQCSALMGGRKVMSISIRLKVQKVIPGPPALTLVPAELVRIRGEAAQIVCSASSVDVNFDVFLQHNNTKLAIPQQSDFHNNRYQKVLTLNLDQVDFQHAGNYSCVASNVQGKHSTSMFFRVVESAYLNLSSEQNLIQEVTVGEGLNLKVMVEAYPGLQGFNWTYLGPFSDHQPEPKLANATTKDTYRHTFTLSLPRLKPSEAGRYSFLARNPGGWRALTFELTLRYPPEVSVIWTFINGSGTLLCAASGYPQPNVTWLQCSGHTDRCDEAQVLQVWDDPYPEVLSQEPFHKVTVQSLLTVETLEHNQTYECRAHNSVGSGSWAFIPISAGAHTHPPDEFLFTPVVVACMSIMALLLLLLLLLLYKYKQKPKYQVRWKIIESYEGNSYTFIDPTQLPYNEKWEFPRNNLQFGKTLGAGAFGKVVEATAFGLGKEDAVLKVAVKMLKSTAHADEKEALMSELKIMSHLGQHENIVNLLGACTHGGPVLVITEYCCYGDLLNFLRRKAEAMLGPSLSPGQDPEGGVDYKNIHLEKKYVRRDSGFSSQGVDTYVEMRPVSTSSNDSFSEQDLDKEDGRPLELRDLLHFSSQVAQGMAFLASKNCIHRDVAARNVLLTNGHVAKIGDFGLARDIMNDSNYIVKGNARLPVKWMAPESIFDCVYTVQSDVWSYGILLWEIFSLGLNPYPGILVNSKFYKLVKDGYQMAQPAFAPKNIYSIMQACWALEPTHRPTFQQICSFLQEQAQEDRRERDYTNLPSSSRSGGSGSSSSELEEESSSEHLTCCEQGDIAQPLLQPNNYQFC
Description: as §1

MARK3 = molecular target: T32, MARK3 (Homo sapiens, UniProt P27448); test: Kinome scan; details: 1000 nM
T32 construct: purchased Eurofins DiscoverX Corporation
Description: as §1

[3] = molecular target: T33, ABL1(T315I)-phosphorylated (Homo sapiens, UniProt P00519, T315I); test: Kinome scan; details: 1000 nM
T33 construct: purchased Eurofins DiscoverX Corporation
Description: as §1

INSR = molecular target: T34, INSR (Homo sapiens, UniProt P06213); test: Kinome scan; details: 1000 nM
T34 construct: purchased Eurofins DiscoverX Corporation
Description: as §1

RET = molecular target: T35, RET (Homo sapiens, UniProt P07949); test: Kinome scan; details: 1000 nM
T35 construct: purchased Eurofins DiscoverX Corporation
Description: as §1

JNK3 = molecular target: T36, JNK3 (Homo sapiens, UniProt P53779); test: Kinome scan; details: 1000 nM
T36 construct: purchased Eurofins DiscoverX Corporation
Description: as §1

SRC = molecular target: T37, SRC (Homo sapiens, UniProt P12931); test: Kinome scan; details: 1000 nM
T37 construct: purchased Eurofins DiscoverX Corporation
Description: as §1

ERK1 = molecular target: T38, ERK1 (Homo sapiens, UniProt P27361); test: Kinome scan; details: 1000 nM
T38 construct: purchased Eurofins DiscoverX Corporation
Description: as §1

PCTK1 = molecular target: T39, PCTK1 (Homo sapiens, UniProt Q00536); test: Kinome scan; details: 1000 nM
T39 construct: purchased Eurofins DiscoverX Corporation
Description: as §1

MEK2 = molecular target: T40, MEK2 (Homo sapiens, UniProt P36507); test: Kinome scan; details: 1000 nM
T40 construct: purchased Eurofins DiscoverX Corporation
Description: as §1

CDK9 = molecular target: T41, CDK9 (Homo sapiens, UniProt P50750); test: Kinome scan; details: 1000 nM
T41 construct: purchased Eurofins DiscoverX Corporation
Description: as §1

T1 sequence (O00444 whole entry): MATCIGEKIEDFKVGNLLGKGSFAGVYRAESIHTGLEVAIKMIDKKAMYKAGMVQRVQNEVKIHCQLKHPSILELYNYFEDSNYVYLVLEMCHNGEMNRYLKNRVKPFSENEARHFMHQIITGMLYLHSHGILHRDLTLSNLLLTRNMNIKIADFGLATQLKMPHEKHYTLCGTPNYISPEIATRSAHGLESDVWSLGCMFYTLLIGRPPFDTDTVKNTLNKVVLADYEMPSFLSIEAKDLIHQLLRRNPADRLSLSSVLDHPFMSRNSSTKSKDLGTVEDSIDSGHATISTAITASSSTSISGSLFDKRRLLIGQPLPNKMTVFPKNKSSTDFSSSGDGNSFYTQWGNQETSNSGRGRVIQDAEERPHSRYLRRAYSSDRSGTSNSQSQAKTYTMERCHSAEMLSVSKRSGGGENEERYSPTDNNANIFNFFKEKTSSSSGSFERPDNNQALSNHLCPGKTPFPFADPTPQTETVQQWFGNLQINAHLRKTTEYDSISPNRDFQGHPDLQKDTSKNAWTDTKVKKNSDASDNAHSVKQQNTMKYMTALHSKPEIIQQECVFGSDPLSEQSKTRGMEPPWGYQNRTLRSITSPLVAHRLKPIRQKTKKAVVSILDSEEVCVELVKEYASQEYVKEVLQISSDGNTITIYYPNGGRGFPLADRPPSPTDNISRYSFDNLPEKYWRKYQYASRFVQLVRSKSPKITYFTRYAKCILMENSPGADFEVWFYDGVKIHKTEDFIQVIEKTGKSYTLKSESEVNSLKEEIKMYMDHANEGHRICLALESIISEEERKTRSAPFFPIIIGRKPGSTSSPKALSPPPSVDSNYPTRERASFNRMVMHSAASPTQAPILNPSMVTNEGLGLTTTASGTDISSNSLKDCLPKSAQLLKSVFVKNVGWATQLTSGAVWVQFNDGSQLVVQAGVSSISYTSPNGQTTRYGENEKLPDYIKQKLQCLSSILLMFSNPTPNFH

inhibition at 1 µM (PLK4): 0% | inhibition at 1 µM [1]: 70% | inhibition at 1 µM (CDK11): 72.1% | inhibition at 1 µM (PAK1): 18% | inhibition at 1 µM (IGF1R): 7% | inhibition at 1 µM (KIT): 1% | inhibition at 1 µM (GSK3B): 0% | remaining binding at 1 µM (CSNK1D; 1 μM, read-out: activity remaining, CK1δ (CSNK1D)): < 20% | inhibition at 1 µM (CSNK1D; 1000 nM, CSNK1D): 91.3% | inhibition at 1 µM (ERBB4): 3% | inhibition at 1 µM (CDK2): 9% | inhibition at 1 µM (AKT1): 7% | inhibition at 1 µM (PRKCE): 0% | inhibition at 1 µM (MET): 4% | inhibition at 1 µM (AURKA): 22% | inhibition at 1 µM (BRAF): 0% | inhibition at 1 µM (FLT3): 27% | inhibition at 1 µM (MKNK2): 62% | inhibition at 1 µM (PLK1): 0% | inhibition at 1 µM (AURKB): 0% | inhibition at 1 µM (EPHA2): 28% | inhibition at 1 µM (ROCK2): 27% | inhibition at 1 µM (PIM2): 3% | inhibition at 1 µM [2]: 0% | inhibition at 1 µM (AXL): 7% | inhibition at 1 µM (JNK1): 17% | inhibition at 1 µM (p38-beta): 3% | inhibition at 1 µM (EGFR(L858R)): 0% | inhibition at 1 µM (LKB1): 2% | inhibition at 1 µM (PAK4): 50% | inhibition at 1 µM (PIK3CA): 7% | inhibition at 1 µM (CSF1R): 20% | inhibition at 1 µM (MARK3): 0% | inhibition at 1 µM [3]: 65% | inhibition at 1 µM (INSR): 5% | inhibition at 1 µM (RET): 11% | inhibition at 1 µM (JNK3): 13% | inhibition at 1 µM (SRC): 6% | inhibition at 1 µM (ERK1): 4% | inhibition at 1 µM (PCTK1): 0% | inhibition at 1 µM (MEK2): 69% | inhibition at 1 µM (CDK9): 4%
SMILES: C#Cc1cn([C@@H]2S[C@H](CO)[C@@H](O)[C@H]2O)c2ncnc(N)c12 [Compound 1g, (2R,3R,4S,5R)-2-(4-Amino-5-ethynyl-7H-pyrrolo[2,3-d]pyrimidin-7-yl)-5-(hydroxymethyl)tetrahydrothiophene-3,4-diol]
% inhibition (Kinome scan): 0.0%
